These results are taken from ChEMBL document CHEMBL1122021, “Angiotensin-converting enzyme inhibitors: importance of the amide carbonyl of mercaptoacyl amino acids for hydrogen bonding to the enzyme” (J Med Chem, 1982).

The first experiment addresses T1, Angiotensin-converting enzyme (Oryctolagus cuniculus, UniProt P12822).
T1 sequence (P12822 whole entry): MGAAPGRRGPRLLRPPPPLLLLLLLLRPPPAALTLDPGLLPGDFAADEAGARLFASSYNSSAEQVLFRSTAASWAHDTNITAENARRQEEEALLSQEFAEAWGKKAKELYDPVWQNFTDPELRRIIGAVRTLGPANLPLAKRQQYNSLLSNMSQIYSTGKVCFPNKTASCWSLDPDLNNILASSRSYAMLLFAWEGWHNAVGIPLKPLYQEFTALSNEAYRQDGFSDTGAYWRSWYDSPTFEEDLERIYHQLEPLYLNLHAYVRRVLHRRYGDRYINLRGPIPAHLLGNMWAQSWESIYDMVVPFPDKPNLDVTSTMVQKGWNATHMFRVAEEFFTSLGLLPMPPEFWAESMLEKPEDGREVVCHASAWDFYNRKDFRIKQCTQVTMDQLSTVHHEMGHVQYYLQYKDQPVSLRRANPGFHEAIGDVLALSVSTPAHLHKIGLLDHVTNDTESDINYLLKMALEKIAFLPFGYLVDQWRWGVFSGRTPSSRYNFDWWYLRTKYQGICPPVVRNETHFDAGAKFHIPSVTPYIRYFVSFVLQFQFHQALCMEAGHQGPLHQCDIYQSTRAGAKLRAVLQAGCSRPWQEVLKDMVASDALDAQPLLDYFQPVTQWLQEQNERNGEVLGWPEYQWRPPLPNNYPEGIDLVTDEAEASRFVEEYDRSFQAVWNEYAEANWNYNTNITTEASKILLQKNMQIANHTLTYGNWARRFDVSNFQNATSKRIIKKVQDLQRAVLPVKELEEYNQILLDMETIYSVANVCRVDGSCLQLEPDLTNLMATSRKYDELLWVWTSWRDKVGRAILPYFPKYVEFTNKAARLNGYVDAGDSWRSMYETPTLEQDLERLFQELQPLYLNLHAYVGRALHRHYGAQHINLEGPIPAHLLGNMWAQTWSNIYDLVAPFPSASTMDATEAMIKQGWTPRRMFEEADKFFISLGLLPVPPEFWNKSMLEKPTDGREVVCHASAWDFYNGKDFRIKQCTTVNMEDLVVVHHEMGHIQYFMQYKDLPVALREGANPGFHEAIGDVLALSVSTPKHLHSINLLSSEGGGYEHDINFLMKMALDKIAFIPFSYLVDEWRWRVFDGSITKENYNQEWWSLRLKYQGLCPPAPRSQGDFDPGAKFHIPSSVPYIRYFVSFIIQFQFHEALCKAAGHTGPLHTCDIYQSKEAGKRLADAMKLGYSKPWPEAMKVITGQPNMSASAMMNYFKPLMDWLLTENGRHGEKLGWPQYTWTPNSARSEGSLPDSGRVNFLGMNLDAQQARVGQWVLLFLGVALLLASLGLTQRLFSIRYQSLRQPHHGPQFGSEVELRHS
In words: In vitro inhibitory activity against Angiotensin I converting enzyme in rabbit lung, using hippuryl-histidyl-leucine as substrate.
Conditions: not given
With `C[C@H](CS)C(=O)N1C(=O)CC[C@H]1C(=O)O`, the IC50 is 0.009 µM.
The molecule `CN(C(=O)CCS)[C@@H](Cc1ccccc1)C(=O)O` showed an IC50 of 31 µM.

The experiment is the same for the next values; noted with them: read-out: I50.
As to `O=C(O)[C@@H]1CCCN1C(=O)CCS`, the IC50 came to 0.25 µM.
The same measure, in the same setting: then `O=C(O)CN1CCCC(CS)C1=O` (stereo unspecified), with 10 µM.
With `O=C(O)[C@@H]1CCCN1CCCS`, the IC50 is 240 µM.
For the molecule `O=C(CCS)N[C@@H](Cc1ccccc1)C(=O)O`, the IC50 is 0.85 µM.
On the same count and under the same terms, the figure for `O=C(O)[C@@H]1CC[C@H]1C(=O)CCS` is 37 µM; for `O=C(O)CC(=O)NCCS` it is 580 µM.
Same read-out and setting: then `C[C@@H](CS)C(=O)[C@@H]1CCCC[C@H]1C(=O)O`, with 3.7 µM; and `O=C(O)[C@@H]1CCCC[C@H]1C(=O)CCS`, with 1.7 µM.
Still for that read-out and setting: then `O=C(O)C/C=C/CCS`, with 720 µM; and `O=C(O)[C@@H]1CCC(=O)N1CCCS`, with 640 µM; and `O=C(O)CNC(=O)CCS`, with 2.8 µM.
In the case of `CN(CC(=O)O)C(=O)CCS`, the IC50 came to 3 µM.
Turning to `O=C(O)CCCCCS`, the IC50 is 1100 µM.
The same measure, in the same setting: then `O=C(O)CCC(=O)CCS`, with 11 µM.
For the molecule `O=C(CCS)O[C@@H](Cc1ccccc1)C(=O)O`, the IC50 came out at 0.7 µM.
Same read-out and setting: then `O=C(O)[C@@H]1CCCN1S(=O)(=O)CCS`, with 11 µM.
As for `O=C(O)[C@@H]1CCC[C@H]1C(=O)CCS`, the IC50 came to 2.4 µM.
Turning to `O=C(CCS)[C@H]1CCCC[C@H]1C(=O)O`, the IC50 was found to be 1.4 µM.
As to `C[C@H](CS)C(=O)N1CCCC[C@H]1C(=O)O`, the IC50 came out at 0.13 µM.
On the same count and under the same terms, the figure for `O=C(O)CCC(O)CCS` (stereo unspecified) is 1200 µM.
Take `O=C(O)[C@@H]1CCN1C(=O)CCS`: the IC50 was 1.7 µM.
Turning to `O=C(O)[C@@H]1CCCCN1C(=O)CCS`, the IC50 amounted to 0.46 µM.
The same measure, in the same setting: the figure for `O=C(CCS)[C@H]1CC[C@H]1C(=O)O` is 34 µM; for `C[C@H](CS)C(=O)[C@@H]1CCCC[C@H]1C(=O)O` it is 0.74 µM.
